US9732060B2, “Aminotriazine derivative and pharmaceutical composition comprising the same” (Shionogi & Co., Ltd., priority 2013, dated 2017)
Each block holds one compound with its values, some of them ahead of it.

Key:
[1] = target: T1, human P2X3 receptor (Homo sapiens (Human), UniProt P56373); assay: Evaluation of human P2X3 receptor inhibitory activity in the presence of human serum albumin (HSA); type: cell-based; settings: in the presence of 1% HSA (final concentration)
Description: Stably expressing cell line (C6BU-1 cell transfected with human P2X3 receptor gene (GenBank accession number Y07683; was used. The cells were seeded in a 96-well microtiter plate at a concentration of 8000 cells/well and cultured in the medium (7.0% fetal bovine serum, 7.0% horse serum, 1% antibiotic and antifungal, and 2.0% glutamine in DMEM) for one day at 37° C. under 5% carbon dioxide atmosphere. The medium was replaced with 4 μM Fluo-3-AM solution (20 mM HEPES, 137 mM NaCl, 5.37 mM KCl, 0.9 mM MgCl2, 1.26 mM CaCl2, 5.6 mM D-glucose, 2.5 mM probenecid, 0.5% BSA, and 0.04% Pluronic F-127, pH 7.5) and incubated at 37° C. under 5% dioxide carbon atmosphere for one hour. The plate was washed with washing buffer (20 mM HEPES, 137 mM NaCl, 5.27 mM KCl, 0.9 mM MgCl2, 1.26 mM CaCl2, 5.6 mM D-glucose, 2.5 mM probenecid, pH 7.5), and each well was added with 40 μL of this buffer. The plate was placed in High-Throughput Screening System FDSS 3000 (Hamamatsu Photonics K.K.). Measurement of fluorescence intensity by FDSS 3000 was started, and 40 μL of DMSO solutions containing 1% HSA (final concentrations) different concentrations of the test compound as prepared by dilution with dilution buffer (20 mM HEPES, 137 mM NaCl, 5.27 mM KCl, 0.9 mM MgCl2, 1.26 mM CaCl2, 5.6 mM D-glucose, 2.5 mM probenecid, 0.1% Pluronic F-127, pH 7.5) were dispensed to each well through the built-in automatic dispenser. Five minutes after, 50 nM ATP solution (50 μL) prepared by dilution with the dilution buffer was dispensed through the built-in automatic dispenser, and the measurement of fluorescence intensity was continued for 4 min. For each well, the specific maximum fluorescence intensity was calculated as the ratio of the maximum fluorescence intensity after addition of the ATP solution to the fluorescence intensity at the starting of the measurement. […] FDSS software (Hamamatsu Photonics K.K.) was used for calculation of the specific maximum fluorescence intensity. IC50 was calculated using Microsoft Excel (Microsoft Corporation) and XLfit (idbs Ltd.)

[2] = target: Rat P2X3 receptor (Rattus norvegicus (Rat), UniProt P49654); assay: Evaluation of rat P2X3 receptor inhibitory activity in the presence of rat serum albumin (RSA); type: cell-based; settings: read-out: ratP2X3 + RSA IC50
Sequence of Rat P2X3 receptor (P49654 whole entry): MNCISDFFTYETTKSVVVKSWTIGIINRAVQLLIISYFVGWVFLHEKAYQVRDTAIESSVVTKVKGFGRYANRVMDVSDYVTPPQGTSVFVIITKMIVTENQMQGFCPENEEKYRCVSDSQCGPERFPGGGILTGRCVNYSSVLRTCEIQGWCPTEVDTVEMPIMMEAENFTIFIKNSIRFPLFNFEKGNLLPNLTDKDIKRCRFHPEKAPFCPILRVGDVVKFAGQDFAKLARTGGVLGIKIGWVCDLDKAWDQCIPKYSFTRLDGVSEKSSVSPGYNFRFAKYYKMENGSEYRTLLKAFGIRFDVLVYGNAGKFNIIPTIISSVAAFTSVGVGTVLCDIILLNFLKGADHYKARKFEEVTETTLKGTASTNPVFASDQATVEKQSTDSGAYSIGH
Description: Rat P2X3 receptor gene (GenBank accession number NM_031075) was expressed in C6BU-1 cell. The C6BU-1 cells were seeded in a 96-well micro titer plate at a concentration of 2500 cells/well and cultured in the medium (7.0% fetal bovine serum, 7.0% horse serum, and 1% antibiotic and antifungal in DMEM) for one day at 37° C. under 5% carbon dioxide atmosphere. The plasmid was transfected into the cells using transfection reagent FuGENE6 (Promega). The transfected cells were cultured in the medium for one day at 37° C. under 5% carbon dioxide atmosphere. The medium was replaced with 4 μM Fluo-4-AM solution (pH 7.5) containing 20 mM HEPES, 137 mM NaCl, 5.27 mM KCl, 0.9 mM MgCl2, 1.26 mM CaCl2, 5.6 mM D-glucose, 2.5 mM probenecid, 10% RSA, and 0.08% Pluronic F-127, and incubated at 37° C. under 5% dioxide carbon atmosphere for one hour. The plate was washed with washing buffer (20 mM HEPES, 137 mM NaCl, 5.27 mM KCl, 0.9 mM MgCl2, 1.26 mM CaCl2, 5.6 mM D-glucose, 2.5 mM probenecid, pH 7.5), and each well was added with 40 μL of this buffer. The plate was placed in High-Throughput Screening System FDSS 3000 (Hamamatsu Photonics K.K.). Measurement of fluorescence intensity by FDSS 3000 was started, and 40 μL of DMSO solutions containing 1% RSA (final concentrations) and different concentrations of the test compound as prepared by dilution with dilution buffer (20 mM HEPES, 137 mM NaCl, 5.27 mM KCl, 0.9 mM MgCl2, 1.26 mM CaCl2, 5.6 mM D-glucose, 2.5 mM probenecid, 0.1% Pluronic F-127, pH 7.5) were dispensed to each well through the built-in automatic dispenser. Five minutes after, 50 nM ATP solution (50 μL) prepared by dilution with the dilution buffer was dispensed through the built-in automatic dispenser, and the measurement of fluorescence intensity was continued for 4 min. For each well, the specific maximum fluorescence intensity was calculated as the ratio of the maximum fluorescence intensity after addition of the ATP solution to the fluorescence intensity at the starting of the measurement. […] FDSS software (Hamamatsu Photonics K.K.) was used for calculation of the specific maximum fluorescence intensity. IC50 was calculated using Microsoft Excel (Microsoft Corporation) and XLfit (idbs Ltd.).

[3] = target: CYP1A2 (Homo sapiens (Human), UniProt P05177); assay: CYP inhibition test, CYP1A2; type: in vitro ADME; settings: pooled human hepatic microsome; 7-ethoxyresorufin-O-deethylation
Sequence of CYP1A2 (P05177 whole entry): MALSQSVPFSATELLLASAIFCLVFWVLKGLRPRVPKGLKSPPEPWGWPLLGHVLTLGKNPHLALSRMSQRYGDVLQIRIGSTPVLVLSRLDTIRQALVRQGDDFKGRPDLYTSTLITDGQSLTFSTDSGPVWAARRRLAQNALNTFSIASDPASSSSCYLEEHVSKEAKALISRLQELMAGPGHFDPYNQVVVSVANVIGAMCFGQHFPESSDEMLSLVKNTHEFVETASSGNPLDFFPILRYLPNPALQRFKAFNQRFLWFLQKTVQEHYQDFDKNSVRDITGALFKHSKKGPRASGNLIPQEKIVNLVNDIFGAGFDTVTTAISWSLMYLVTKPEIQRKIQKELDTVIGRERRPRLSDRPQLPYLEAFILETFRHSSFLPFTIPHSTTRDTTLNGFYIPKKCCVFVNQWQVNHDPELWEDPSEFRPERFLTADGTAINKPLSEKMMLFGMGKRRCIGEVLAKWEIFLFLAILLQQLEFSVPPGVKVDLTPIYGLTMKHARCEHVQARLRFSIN
Description: (§1) Using commercially available pooled human hepatic microsome, and employing, as markers, 7-ethoxyresorufin-O-deethylation (CYP1A2), tolbutamide methyl-hydroxylation (CYP2C9), mephenytoin 4′-hydroxylation (CYP2C19), dextromethorphan O-demethylation (CYP2D6), and terfenedine hydroxylation as typical substrate metabolism reactions of human main five CYP enzyme forms (CYP1A2, 2C9, 2C19, 2D6, 3A4), an inhibitory degree of each metabolite production amount by a test compound was assessed.
(§2) The reaction conditions were as follows: substrate, 0.5 μmol/L ethoxyresorufin (CYP1A2), 100 μmol/L tolbutamide (CYP2C9), 50 μmol/L S-mephenitoin (CYP2C19), 5 μmol/L dextromethorphan (CYP2D6), 1 μmol/L terfenedine (CYP3A4); reaction time, 15 minutes; reaction temperature, 37° C. enzyme, pooled human hepatic microsome 0.2 mg protein/mL; test, drug concentration, 1.0, 5.0, 10, 20 μmol/L (four points).
(§3) Each five kinds of substrates, human hepatic microsome, or a test drug in 50 mmol/L Hepes buffer as a reaction solution was added to a […] at the composition as described above, NADPH, as a cofactor was added to initiate metabolism reactions as markers and, after the incubation at 37° C. for 15 minutes, a methanol/acetonitrile=1/1 (v/v) solution was added to stop the reaction. After the centrifugation at 3000 rpm for 15 minutes, resorufin (CYP1A2 metabolite) in the supernatant was quantified by a fluorescent multilabel counter and tributamide hydroxide (CYP2CP metabolite), mephenytoin 4′hydroxide (CYP2C19 metabolite), […] (CYP2D6 metabolite), and terfenadine alcohol (CYP3A4 metabolite) were quantified by LC/MS/MS.
(§4) Addition of only DMSO being a solvent dissolving a drug to a reaction system was adopted as a control (100%), remaining activity (%) was calculated at each concentration of a test drug added as the solution and IC50 was calculated by reverse presumption by a logistic model using a concentration and an inhibition rate.

[4] = target: CYP2C9 (Homo sapiens (Human), UniProt P11712); assay: CYP inhibition test, CYP2C9; type: in vitro ADME; settings: pooled human hepatic microsome; tolbutamide methyl-hydroxylation
Sequence of CYP2C9 (P11712 whole entry): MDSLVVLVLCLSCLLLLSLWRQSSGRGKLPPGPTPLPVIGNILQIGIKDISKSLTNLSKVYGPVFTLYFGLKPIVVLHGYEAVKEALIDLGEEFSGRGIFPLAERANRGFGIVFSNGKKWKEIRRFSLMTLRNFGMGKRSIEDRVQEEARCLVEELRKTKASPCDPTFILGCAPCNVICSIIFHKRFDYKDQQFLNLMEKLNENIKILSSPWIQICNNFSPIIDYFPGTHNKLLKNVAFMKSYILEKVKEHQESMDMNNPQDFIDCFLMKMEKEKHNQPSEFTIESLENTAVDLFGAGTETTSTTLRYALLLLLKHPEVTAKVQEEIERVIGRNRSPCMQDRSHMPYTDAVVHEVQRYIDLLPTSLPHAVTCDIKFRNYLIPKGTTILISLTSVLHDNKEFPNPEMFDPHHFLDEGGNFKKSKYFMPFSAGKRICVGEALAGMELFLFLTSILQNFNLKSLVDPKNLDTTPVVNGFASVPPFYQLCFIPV
Description: as §1, §2, §3, §4

[5] = target: CYP2C19 (Homo sapiens (Human), UniProt P33261); assay: CYP inhibition test, CYP2C19; type: in vitro ADME; settings: pooled human hepatic microsome; mephenytoin 4′-hydroxylation
Sequence of CYP2C19 (P33261 whole entry): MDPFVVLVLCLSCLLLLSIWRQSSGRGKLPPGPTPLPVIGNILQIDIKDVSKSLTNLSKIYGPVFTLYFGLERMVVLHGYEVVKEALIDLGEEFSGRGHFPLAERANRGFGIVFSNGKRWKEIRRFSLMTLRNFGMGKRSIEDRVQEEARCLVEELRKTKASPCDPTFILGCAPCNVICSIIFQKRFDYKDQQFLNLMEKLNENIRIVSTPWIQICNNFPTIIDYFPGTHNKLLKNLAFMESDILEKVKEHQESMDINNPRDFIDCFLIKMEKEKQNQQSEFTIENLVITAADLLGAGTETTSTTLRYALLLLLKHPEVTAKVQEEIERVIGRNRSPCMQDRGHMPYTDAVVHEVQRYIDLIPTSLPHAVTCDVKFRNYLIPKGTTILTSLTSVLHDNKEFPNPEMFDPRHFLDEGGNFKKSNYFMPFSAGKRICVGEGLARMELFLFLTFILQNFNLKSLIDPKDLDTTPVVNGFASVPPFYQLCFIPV
Description: as §1, §2, §3, §4

[6] = target: CYP2D6 (Homo sapiens (Human), UniProt P10635); assay: CYP inhibition test, CYP2D6; type: in vitro ADME; settings: pooled human hepatic microsome; dextromethorphan O-demethylation
Sequence of CYP2D6 (P10635 whole entry): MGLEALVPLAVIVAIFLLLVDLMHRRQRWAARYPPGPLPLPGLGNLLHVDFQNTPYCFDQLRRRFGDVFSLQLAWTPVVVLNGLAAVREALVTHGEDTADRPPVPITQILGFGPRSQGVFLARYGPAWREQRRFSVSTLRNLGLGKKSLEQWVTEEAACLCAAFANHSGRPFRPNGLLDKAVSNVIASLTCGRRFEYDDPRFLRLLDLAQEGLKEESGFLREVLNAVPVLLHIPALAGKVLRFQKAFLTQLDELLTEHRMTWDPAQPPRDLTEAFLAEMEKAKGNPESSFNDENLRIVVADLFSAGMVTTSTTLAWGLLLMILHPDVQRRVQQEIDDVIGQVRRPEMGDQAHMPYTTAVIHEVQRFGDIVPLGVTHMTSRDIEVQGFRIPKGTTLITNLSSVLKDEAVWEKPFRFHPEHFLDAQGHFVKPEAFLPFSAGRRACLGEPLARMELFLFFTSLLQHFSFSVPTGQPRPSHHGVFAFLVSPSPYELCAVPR
Description: as §1, §2, §3, §4

[7] = target: CYP3A4 (Homo sapiens (Human), UniProt P08684); assay: CYP inhibition test, CYP3A4; type: in vitro ADME; settings: pooled human hepatic microsome; terfenedine hydroxylation
Sequence of CYP3A4 (P08684 whole entry): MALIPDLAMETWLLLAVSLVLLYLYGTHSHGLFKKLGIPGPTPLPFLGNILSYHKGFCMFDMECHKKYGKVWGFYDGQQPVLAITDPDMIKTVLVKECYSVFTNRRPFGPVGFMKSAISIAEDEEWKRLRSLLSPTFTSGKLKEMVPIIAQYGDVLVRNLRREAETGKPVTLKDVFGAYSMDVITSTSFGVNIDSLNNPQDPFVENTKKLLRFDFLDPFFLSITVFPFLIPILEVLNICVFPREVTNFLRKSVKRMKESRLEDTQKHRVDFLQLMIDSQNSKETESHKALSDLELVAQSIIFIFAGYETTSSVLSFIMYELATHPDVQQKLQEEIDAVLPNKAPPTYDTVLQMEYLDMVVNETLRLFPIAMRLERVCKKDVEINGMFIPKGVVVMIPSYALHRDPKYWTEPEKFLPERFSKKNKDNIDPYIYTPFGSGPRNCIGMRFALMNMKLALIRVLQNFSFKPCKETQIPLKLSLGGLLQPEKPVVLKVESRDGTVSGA
Description: as §1, §2, §3, §4

[8] = Solubility test (1% DMSO, artificial intestinal juice pH 6.8); type: physicochemical; settings: artificial intestinal juice pH 6.8 with 1% DMSO, 25 °C, fassgf or other biorelevant, kinetic from dmso stock, artificial intestinal juice pH 6.8, 25 degrees Celsius, read-out: Solubulity
Description: The solubility of a compound was determined under a condition in which 1% DMSO was added. 10 mmol/L compound solution was prepared using DMSO, and then 2 μL of the compound solution was added to 198 μL of artificial intestinal juice in pH 6.8 (to 250 mL of 0.2 mol/L potassium dihydrogen phosphate reagent solution was added 118 mL of 0.2 mol/L NaOH reagent solution and water to provide a final volume of 1000 mL). After standing at 25 degrees Celsius for 18 hours, the mixed solution was filtrated with suction. The filtrate was diluted twice with methanol/water (1/1), and then a concentration in the filtration was measured with HPLC or LC/MS/MS by the absolute calibration method.

[9] = target: T1, human P2X3 receptor; assay: Evaluation of human P2X3 receptor inhibitory activity (FLIPR Ca fluorescence, ATP-evoked); type: cell-based; settings: C6BU-1 cells stably expressing human P2X3 receptor
Description: Stably expressing cell line (C6BU-1 cell transfected with human P2X3 receptor gene (GenBank accession number Y07683) was used. The cells were seeded in a 384-well PDL-coated microtiter plate at a concentration of 3000 cells/well and cultured in the medium (8.3% fetal bovine serum, 8.3% horse serum, and 1% antibiotic and antifungal in DMEM) for one day at 37° C. under 5% carbon dioxide atmosphere. The medium was replaced with 4 μM Fluo-3-AM solution (20 mM HEPES, 137 mM NaCl, 2.7 mM KCl, 0.9 mM MgCl2, 5.0 mM CaCl2, 5.6 mM D-glucose, 2.5 mM probenecid, 0.5% BSA, and 0.04% Pluronic P-127, pH 7.5) and incubated at 37° C. under 5% dioxide carbon atmosphere for one hour. The plate was washed with washing buffer (20 mM HEPES, 137 mM NaCl, 2.7 mM KCl, 0.9 mM MgCl2, 5.0 mM CaCl2, 5.6 mM D-glucose, 2.5 mM probenecid, pH 7.5), and each well was added with 20 μL of the washing buffer. The plate was placed in High-Throughput Screening System FLIPR 384 (Molecular Device Co.). Measurement of fluorescence intensity by […] was started, and 20 μL of DMSO solutions containing different concentrations of the test compound as prepared by dilution with dilution buffer (20 mM HEPES, 137 mM NaCl, 2.7 mM KCl, 0.9 mM MgCl2, 5.0 mM CaCl2, 5.6 mM D-glucose, 2.5 mM probenecid, 0.1% Pluronic F-127, pH 7.5) were dispensed to each well through the built-in automatic dispenser. Five minutes after, 150 nM ATP solution (25 μL) prepared by dilution with the dilution buffer was dispensed through the built-in automatic dispenser, and the measurement of fluorescence intensity was continued for 4 min. For each well, the specific maximum fluorescence intensity was calculated as the ratio of the maximum fluorescence intensity after addition of the ATP solution to the fluorescence intensity at the starting of the measurement. […] The specific maximum fluorescence intensify and IC50 were calculated using Spotfire (Science & Technology Systems. Inc.)

T1 sequence (P56373 whole entry): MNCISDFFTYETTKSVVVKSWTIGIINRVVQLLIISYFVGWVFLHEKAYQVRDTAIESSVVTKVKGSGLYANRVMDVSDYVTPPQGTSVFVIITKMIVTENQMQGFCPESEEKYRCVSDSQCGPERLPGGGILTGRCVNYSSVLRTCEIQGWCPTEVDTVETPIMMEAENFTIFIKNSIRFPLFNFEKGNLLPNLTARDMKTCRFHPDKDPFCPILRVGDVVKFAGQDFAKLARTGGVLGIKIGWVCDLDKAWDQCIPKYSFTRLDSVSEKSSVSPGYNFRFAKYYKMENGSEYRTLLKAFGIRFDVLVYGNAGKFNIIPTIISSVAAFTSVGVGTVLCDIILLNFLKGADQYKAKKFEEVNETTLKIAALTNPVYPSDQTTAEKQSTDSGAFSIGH

SMILES: COc1ccc(Oc2ccc(/N=c3\[nH]c(=O)n(C[C@H](C)C(=O)O)c(=O)n3Cc3ccc(Cl)cc3)cc2)nc1 [Compound I-079]
IC50 [1]: 37 nM

SMILES: C[C@@H](Cn1c(=O)[nH]/c(=N\c2ccc(Oc3ccc(OC(F)F)cn3)cc2)n(Cc2ccc(Cl)cc2)c1=O)C(=O)O [Compound I-022]
IC50 [2]: 11 nM

SMILES: C[C@@H](Cn1c(=O)[nH]/c(=N\c2ccc(Oc3cccnn3)c(F)c2)n(Cc2ccc(Cl)cc2)c1=O)C(=O)O [Compound R-037]
IC50 [2]: 8 nM

IC50 [3]: > 20000 nM
IC50 [4]: > 20000 nM
IC50 [5]: > 20000 nM
IC50 [6]: > 20000 nM
IC50 [7]: > 20000 nM
solubility at 18 h [8]: > 50 µM
SMILES: Cc1ccc(Cn2c(=O)n(CC(C)(C)C(=O)O)c(=O)[nH]/c2=N\c2ccc(Oc3ccc(F)cn3)cc2)cc1 [Compound I-041]

SMILES: Cc1ccc(Cn2c(=O)n([C@@H](C)[C@@H](C)C(=O)O)c(=O)[nH]/c2=N\c2ccc(Oc3ccc(C)cn3)cc2)cc1 [Compound I-113]
IC50 [2]: 10 nM

SMILES: COC(=O)[C@@H](C)Cn1c(=O)[nH]/c(=N\c2ccc(Oc3ccccn3)c(F)c2)n(C[C@H]2CC[C@H](C)CC2)c1=O [Compound I-253]
IC50 [9]: 9 nM

solubility at 18 h [8]: > 50 µM
SMILES: Cc1ccc(Cn2c(=O)n(C[C@H](C)C(=O)O)c(=O)[nH]/c2=N\c2ccc(Oc3cccc(C(F)(F)F)n3)cc2)cc1 [Compound I-039]

SMILES: [2H]C([2H])([2H])c1ccc(Cn2c(=O)n(C[C@H](C)C(=O)O)c(=O)[nH]/c2=N\c2ccc(Oc3ccc(F)cn3)cc2)cc1 [Compound I-130]
IC50 [9]: 6 nM
